Consider two compounds from US20100166854A1, “ELECTROSPUN MATRICES FOR DELIVERY OF HYDROPHILIC AND LIPOPHILIC COMPOUNDS” (priority 2006, published 2010).

Series [1] in a line: Drug release from electrospun PLGA or PLLA fibers in Franz diffusion cells (Example 2). In kind it is physicochemical. The following applies: PBS 37° C. On the procedure:
Poly(lactide-co-glycolide) (50:50) (PLGA) or poly(L-lactide) (PLLA) was dissolved in hexafluoroisopropanol (HFIP) and gently shaken for 3 hours till the polymer was completely dissolved. To this a solution of LH or mupirocin in HFIP was slowly added without any visible precipitation and shaken. The homogeneous drug/polymer solution was then electrospun as per the following parameters on a rotating mandrel. Differential Scanning Calorimetry (DSC) was conducted on the fibers to study drug inclusion. The dried scaffolds were sectioned into uniform weight discs and placed into Franz diffusion cells (Permegear Inc., Bethlehem, Pa.) with phosphate buffered saline at 37° C. rotated at 600 rpm. Samples were withdrawn at specific times and analyzed by HPLC. An equivalent amount of fresh PBS was replaced each time.

In series [2] the test system is Staphylococcus aureus ATCC 25923. The conditions noted are these: 5 μg mupirocin disc, interpretative criteria; cited from earlier work.
Series [3] concerns mupirocin-sensitive bacteria. The following applies: all the strains of mupirocin-sensitive bacteria; cited from earlier work.

Counter-ions that a name gives are not always drawn.

In the case of `C/C(=C\C(=O)OCCCCCCCCC(=O)O)C[C@@H]1OC[C@H](C[C@@H]2O[C@H]2[C@@H](C)[C@H](C)O)[C@@H](O)[C@H]1O` [mupirocin], the mupirocin cumulative release in series [1] (in the next 72 hours, PLLA 15% fibers, mupirocin 25% w/v of polymer) is recorded as 70 wt %. Besides, the “mupirocin initial burst release” value in series [1] (within an hour, PLLA 15% fibers, mupirocin 25% w/v of polymer) is listed as 36 wt %. For the same compound, the “zone diameter considered acceptable” value in series [2] was 22 to 27 mm. Besides, in series [3], the MIC was 0.06 to 0.5 µg/mL.
For `CCN(CC)CC(=O)Nc1c(C)cccc1C` [LH, Lidocaine hydrochloride], in series [1] (within 48 hrs, PLGA 20% fibers, LH 100% w/v of polymer), the LH released is listed as 92%. The same compound displayed an LH burst release in series [1] (within the first hour, PLGA 20% fibers, LH 100% w/v of polymer) of 80%.
